Data as given in patent US20220136033A1, “Kits and Assays for Determining Bacterial Cell Viability” (priority 2020, published 2022).
“And” between values parts separate entries of the source, which are not always exact repeats. Identical values can stand only once. Counter-ions that a name gives are not always drawn.

Experiments:
[1] = test system: Gram-negative and Gram-positive bacteria; test: Bright-field microscopy viability staining with erythrosin B; format: cell-based
Description: Growth and treatments of bacteria. To prepare cells for viability studies, 3 mL overnight bacterial cultures were grown in Luria Broth. Fresh 5 mL cultures were inoculated from the overnight cultures and grown for 1 to 4 hours until reaching an OD600 of 0.4-1.1. Cells were harvested by centrifugation (15,000 g for 4 minutes) and then resuspended in phosphate buffered saline (PBS). A portion of these cells were kept at room temperature (untreated controls), while the remainder were transferred into separate microfuge tubes for different treatments. For heat shock treatment, microfuge tubes were placed at 70° C. for 30 minutes before returning to room temperature. For ethanol treatment, 100% ethanol (Decon Labs, Inc., PA, USA product number 2716) was added to cell suspensions to a final concentration of 30%. Cell mixtures were incubated at 37° C. for 30 minutes, centrifuged, and then the pellet was resuspended in PBS. For CaCl2 treatment, cells were centrifuged, and the pellet was resuspended in 1 mL of ice-cold 100 mM CaCl2 and left on ice for 45 minutes. After this initial incubation, the cells were centrifuged and resuspended in 1004 of 100 mM CaCl2.
Assaying bacterial viability. For bright-field microscopy assays, 104 of each cell suspension (untreated, heat-shocked, ethanol-treated and CaCl2-treated) was mixed with 104 of 0.08% erythrosin B and incubated for 5 minutes at room temperature. For CaCl2-treated cells, mixtures were placed at 42° C. for 60 seconds before returning to room temperature for the remainder of the incubation. 5 μl of the incubated dye:cell mixtures were taken to prepare wet mounts. Imaging was performed on a […] Olympus BX61 microscope using an UPlanSApo 100X/1.14 NA oil objective lens with an Olympus SC10 camera.

[2] = Concentration of filtered EB stock solution by A530 reference; format: physicochemical; conditions: 0.1% (w/v) preparation in 10 mM Tris pH 7.5, undissolved dye removed by 0.22 μm filter
Description: Erythrosin B (EB, Sigma, Mo., USA 200964-5G) was prepared by dissolving powder in 10 mM Tris pH 7.5. Published values of the solubility of EB in aqueous solutions vary and may result from different preparations of the dye and from which supplier it is purchased. A small amount of undissolved dye was present when preparing a 0.1% (w/v) solution. This stock solution was filtered through a 0.22 μm filter to remove undissolved dye. To determine the concentration of this stock solution a fresh, dilute EB solution was prepared in which all dye fully dissolved after 10 minutes of stirring. This dilute solution was serially diluted and A530 readings (the wavelength of maximal absorbance for EB) were collected generating a reference relating EB dye concentration to A530. The filtered, stock solution of EB was then serially diluted, and absorbance values of the dilutions were compared to the reference absorbance values for the dilute solution. The stock EB concentration was determined to be 0.08% and is used throughout this work.

[3] = Excitation and emission spectra comparison; format: physicochemical; conditions: approx.
Description: FIG. 11. The excitation and emission spectra for erythrosin B and propidium iodide, another cell viability dye that works by membrane exclusion, were compared. Erythrosin B has a narrow range for both excitation (approx. 480-550 nm) and emission (approx. 540-610 nm) compared to propidium iodide (excitation of approx. 300-350 nm and 475-575 nnm; emission of approx. 570-750 nm).
Many experiments involving fluorescent molecules, including viability assays, try to multiplex (use more than one fluorescent molecule at a time (e.g., FIG. 12)). A key limitation to the number of different fluorescent molecules that can be simultaneously used is the width of the region(s) of wavelengths for excitation and for emission. By having narrow ranges for both excitation and emission this allows erythrosin B to be more flexible than propidium iodide and potentially be paired with a wider variety of other fluorescent probes.

bacteria = test: Chemical treatments mildly affecting membrane permeability, EB staining; format: cell-based; conditions: 20 mM EDTA, 0.1-0.5% Triton X100, 0.12 M guanidine HCl or 0.1% SDS
Description: All cell viability assays have limitations. The CFU method can overestimate the proportion of dead cells because any viable cells that are unable to divide, or dividing more slowly than wild-type, fail to form visible colonies and will be scored as dead. Membrane exclusion dyes, such as EB and propidium iodine, can underestimate the proportion of dead cells as recently dead cells may not have sufficiently compromised membranes to allow the dye to enter the cell. […] How other viability methods score dying cells also varies and it is often difficult to accurately quantitate, or distinguish, a dying cell population (4). For membrane-exclusion dyes, the concern is whether the dye enters cells with mildly compromised membranes that may be dying, but not dead.

[4] = test system: Staphylococcus epidermidis; test: Flow cytometry viability comparison, propidium iodide vs EB-based kit; format: cell-based
Description: (§1) Determining bacterial cell viability by a different membrane exclusion dye (propidium iodide, PI) is not reliable for certain bacteria species and under certain growth conditions (10,11). Using an EB dye and adsorbent resin binding step (hereafter referred to as EB-based Kit), it is possible to reliably determine cell viability in these bacteria species (FIG. 9A-L). In these experiments, overnight cultures of Streptococcus mutans (FIG. 9A-F) and Staphylococcus epidermidis (FIG. 9G-L) were grown in Luria Broth. A portion of each culture was killed by treating with ethanol (50% ethanol, for 30 minutes at 30° C.). Overnight cells and ethanol-treated cells were centrifuged (10,000 g for 6 minutes) and then resuspended in phosphate buffered saline. Both cell suspensions were then sonicated to break apart any clusters (10% for 10 seconds). An approximately equal amount of the untreated, living overnight cells and the ethanol-treated, killed cells were mixed to generate a mixed population sample. 100 microliters of each sample (overnight culture, live/dead mixture, and killed cells) were incubated with 100 microliters of an EB-dye solution for 5 minutes. After incubation, 100 microliters of the adsorbent solution was added and gently agitated for 5 minutes on a vortexer. Following agitation, the tubes were left for 5 minutes to allow the adsorbent to settle and 200 microliters of the liquid solution above the adsorbent was transferred to a new tube. These samples were brought up to 1 mL in phosphate buffered saline. For propidium iodide staining, 40 microliters of the sonicated samples (overnight culture, live/dead mixture, and killed cells) were transferred to a fresh tube and brought up to 1 mL in phosphate buffered saline. 1 microliter of propidium iodide was added to each tube and incubated for 15 minutes before analyzing all samples by flow cytometry (FIGS. 9A-F for Streptococcus mutans and FIGS. 9G-L for Staphylococcus epidermidis).

Streptococcus mutans = test: as above; format: cell-based; conditions: >90% alive by CFU, 30,000 events
Description: as §1

| Compound | emission range [3] | excitation range [3] | increase in dye-positive live cells after chemical treatment (bacteria) | further results |
| --- | --- | --- | --- | --- |
| O.O=C([O-])c1ccccc1-c1c2cc(I)c(=O)c(I)c-2oc2c(I)c([O-])c(I)cc12.[Na+].[Na+] [EB, Erythrosin B] | 540-610 nm | 480-550 nm |  | dye-positive cells after CaCl2 treatment ([1]; CaCl2-treated cells): not all treated cells were dye positive; time until clear differences between dye-negative and dye-positive cells were visible ([1]; dye incubation, bright-field): ≤ 5 min; dye-positive cells after heat shock or ethanol treatment ([1]; heat shocked and ethanol-treated organisms): virtually all treated cells were dye-positive; healthy cells dye-positive by bright-field microscopy when incubated with EB ([1]; untreated cells, all species examined): < 3%; stock EB concentration [2]: 0.08% |
| O=C(O)CN(CCN(CC(=O)O)CC(=O)O)CC(=O)O [EDTA] |  |  | did not result in an observable increase in dye-positive live cells |  |
| CC[N+](C)(CC)CCC[n+]1c(-c2ccccc2)c2cc(N)ccc2c2ccc(N)cc21.[I-].[I-] [PI, propidium iodide] | 570-750 nm | 300-350 nm and 475-575 nm |  | cells dead, Live/Dead Mixture sample ([4]; near-equal mixture of live and ethanol-killed cells): 95%; cells dye-positive (dead), overnight culture ([4]; overnight culture, >90% alive by CFU, 30,000 events): ~61%; cells dye-positive (dead), overnight culture (Streptococcus mutans): virtually all cells |
| CCCCCCCCCCCCOS(=O)(=O)[O-].[Na+] [SDS] |  |  | did not result in an observable increase in dye-positive live cells |  |
| N=C(N)N [guanidine HCl] |  |  | did not result in an observable increase in dye-positive live cells |  |
| Triton X100 |  |  | did not result in an observable increase in dye-positive live cells |  |
